US6743817B2, “Substituted fused pyrroleimines and pyrazoleimines” (Neurogen Corporation, priority 2000, dated 2004)

COc1ccc(NC(=O)c2n[nH]c3c2C(=NC(C)C)CCC3)cc1F
melting point: 259 to 261 °C (dec.)
